pIC50: −log10 of the molar value.
system: TNFα release from human peripheral blood mononuclear cells; assay: Inhibition of LPS-stimulated TNFα release from human peripheral blood mononuclear cells (TNFα screen); format: cell-based; details: human PBMC, LPS stimulation, 18 hours incubation, TNFα in supernatant by ELISA
Experimental: Venous blood is collected from healthy volunteers and the mononuclear cells purified by centrifugation through Histopaque (Ficoll) cushions. TNFα production from these cells is stimulated by addition of lipopolysaccharide. After 18 hours incubation in the presence of LPS, the cell supernatant is removed and the concentration of TNFα in the supernatant determined by ELISA. Addition of PDE4 inhibitors reduces the amount of TNFα produced. An IC50 is determined which is equal to the concentration of compound that gives 50% inhibition of TNFα production as compared to the LPS stimulated control wells.

Structure (SMILES)	pIC50
CSc1cccc(Oc2ncc(F)cc2C(=O)N[C@H]2CC[C@@H](NS(=O)(=O)c3cccc4nonc34)CC2)c1 [Example 12, Syn-N-[4-(Benzo[1,2,5]oxadiazole-4-sulphonylamino)-cyclohexyl]-5-fluoro-2-(3-methylsulphanyl-phenoxy)-nicotinamide]	9.52
CSc1cccc(Oc2ncc(F)cc2C(=O)N[C@H]2CC[C@@H](NS(=O)(=O)c3cccc4cccnc34)CC2)c1 [Example 11, Syn-5-Fluoro-2-(3-methylsulphanyl-phenoxy)-N-[4-(quinoline-8-sulphonylamino)-cyclohexyl]-nicotinamide]	10.15
CSc1cccc(Oc2ncc(F)cc2C(=O)N[C@H]2CC[C@@H](NS(=O)(=O)c3cccc4nsnc34)CC2)c1 [Example 13, Syn-N-[4-(Benzo[1,2,5]thiadiazole-4-sulphonylamino)-cyclohexyl]-5-fluoro-2-(3-methylsulphanyl-phenoxy)-nicotinamide]	10.05

Now from value to compound:

pIC50	Structure (SMILES)
9.00	CSc1cccc(Oc2ncc(F)cc2C(=O)N[C@H]2CC[C@@H](NS(=O)(=O)c3c(O)ccc4nsnc34)CC2)c1 [Example 14]
8.70	CSc1cccc(Oc2ncc(F)cc2C(=O)N[C@H]2CC[C@@H](NS(=O)(=O)c3ccc(C)cc3O)CC2)c1 [Example 15, Syn-5-Fluoro-N-[4-(2-hydroxy-4-methyl-benzenesulphonylamino)-cyclohexyl]-2-(3-methylsulphanyl-phenoxy)-nicotinamide]
8.46	CSc1cc(Oc2ncc(F)cc2C(=O)N[C@H]2CC[C@@H](NS(=O)(=O)c3cc(C)ccc3O)CC2)ccc1F [Example 16, Syn-5-Fluoro-N-[4-(2-hydroxy-5-methyl-benzenesulphonylamino)-cyclohexyl]-2-(4-fluoro-3-methylsulphanyl-Phenoxy)-nicotinamide]
